Measured values: PubChem BioAssay (NCI)
Values joined by “and” are separate entries in the source; they are usually repeats but may differ in a detail not shown here. Identical values can stand only once.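 The compound was tested at five concentrations on cells cultured in 96-well plates, with a 48-hour exposure period. The concentration for 50% growth inhibition is given as GI50. At the TGI there is no net growth.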

Legend:
Test in all cases: inhibition of tumour cell growth, NCI panel, 48 h
[1] = test system: U251 CNS
[2] = test system: MCF7 breast
[3] = test system: SK-MEL-2 melanoma
[4] = test system: CCRF-CEM leukemia
[5] = test system: SW-620 colon
[6] = test system: SK-MEL-28 melanoma
[7] = test system: RXF 393 renal
[8] = test system: NCI/ADR-RES ovarian
[9] = test system: HCT-15 colon
[10] = test system: HCC-2998 colon

`NC(=S)N/N=C/c1ccc(O)cn1` was tested, and the GI50 [1] was 9.35 µM and 6.93 µM, the TGI [1] was 391 µM and 602 µM and the GI50 [2] was 2.03 µM. The TGI [2] was greater than 1500 µM, the GI50 [3] was 12.5 µM and 6.35 µM and 57.8 µM and the GI50 [4] was 4.59 µM and 2.42 µM. For the same molecule, the TGI [4] was 37.4 µM and 12 µM and 60.8 µM, the GI50 [5] was 27.4 µM and 13.2 µM and the TGI [5] was greater than 1500 µM. For the same molecule, the GI50 [6] was 49.9 µM and 41.6 µM, the TGI [6] was > 1500 µM and 1050 µM and the GI50 [7] was 20.5 µM and 83.3 µM and 14.6 µM. The TGI [7] was > 1500 µM and 552 µM, the GI50 [8] was 3.09 µM and the GI50 [9] was 22.1 µM and 13.3 µM.
`COC(=O)[C@@]1(O)CC(C)C=C1C=O` (some centres undefined) was tested, and the TGI [10] was greater than 100 µM, the TGI [1] was 38.4 µM and the TGI [3] was greater than 100 µM. The TGI [4] was greater than 100 µM, the TGI [5] was greater than 100 µM and the TGI [6] was greater than 100 µM. For the same molecule, the TGI [7] was 42.9 µM and the TGI [9] was 33.1 µM.
`CC1(C)CCC[C@]2(C)c3cc(O)ccc3CC[C@@H]12` was tested, and the GI50 [1] was 14.6 µM, the TGI [1] was 29.1 µM and the GI50 [2] was 13.3 µM. For the same molecule, the TGI [2] was 37.1 µM, the GI50 [3] was 20.1 µM and the TGI [3] was 43 µM. For the same molecule, the GI50 [5] was 13.8 µM, the TGI [5] was 29 µM and the GI50 [6] was 19.6 µM. It also gave a TGI [6] of 37 µM, a GI50 [7] of 16.1 µM and a TGI [7] of 35.1 µM. The GI50 [8] was 16.5 µM, the TGI [8] was 32.5 µM and the GI50 [9] was 17.1 µM. The TGI [9] was 35.2 µM.
In the case of `CCCCCCCCC(O)C#CC(N)=O` (centres undefined), the TGI [10] is reported as 22.4 µM, the TGI [1] is reported as 20.9 µM and the TGI [3] is reported as 26.3 µM. The TGI [4] was 72.5 µM, the TGI [5] was 37.2 µM and the TGI [6] was 31.8 µM. The TGI [7] was 29.2 µM and the TGI [9] was 30.9 µM.
`O=C(O)c1ccc([S-])cc1.[Au+].c1ccc(CN2[CH-]N(Cc3ccccc3)C(c3ccccc3)=C2c2ccccc2)cc1` showed a GI50 [10] of 0.536 µM, a TGI [10] of 1.88 µM and a GI50 [1] of 0.321 µM. The TGI [1] was 1.36 µM, the GI50 [3] was 0.346 µM and the TGI [3] was 1.21 µM. It also gave a GI50 [4] of 0.356 µM, a TGI [4] of 2.72 µM and a GI50 [5] of 0.418 µM. For the same molecule, the TGI [5] was 1.93 µM, the GI50 [6] was 0.43 µM and the TGI [6] was 1.71 µM. The GI50 [7] was 0.305 µM, the TGI [7] was 1.13 µM and the GI50 [9] was 1.04 µM. For the same molecule, the TGI [9] was 2.55 µM.
`COc1cc(C=O)c(-c2cc3c(cc2C2(C)OCCS2)OCO3)c(OC)c1OC` (centres undefined) gave a TGI [10] of 31.2 µM, a TGI [1] of 72 µM and a TGI [3] of 47.7 µM. The TGI [4] was greater than 160 µM, the TGI [5] was 39.6 µM and the TGI [6] was 26 µM. For the same molecule, the TGI [7] was 46.9 µM and the TGI [9] was 30.2 µM.
`COc1ccc2c(c1)CCc1[nH]nc(-c3cc(OC)c(OC)c(OC)c3)c1-2` gave a GI50 [10] of less than 0.01 µM, a TGI [10] of 11.4 µM and a GI50 [1] of less than 0.01 µM. The TGI [1] was 11.5 µM, the GI50 [2] was less than 0.01 µM and the TGI [2] was 12.9 µM. The GI50 [3] was less than 0.01 µM, the TGI [3] was 26.8 µM and the GI50 [4] was less than 0.01 µM. For the same molecule, the TGI [4] was greater than 100 µM, the GI50 [5] was less than 0.01 µM and the TGI [5] was 14.5 µM. For the same molecule, the GI50 [6] was 1.62 µM, the TGI [6] was 21.7 µM and the GI50 [8] was less than 0.01 µM. For the same molecule, the TGI [8] was less than 0.01 µM, the GI50 [9] was less than 0.01 µM and the TGI [9] was 11.8 µM.
`CC(=O)OC1CC[C@@]2(C)C(CC[C@]3(C)C2CC=C2[C@@H]4CC(C)(C)CCC4(C)CCC23C)[C@@]1(C)C(=O)O` (some centres undefined) showed a TGI [10] of 35.8 µM, a TGI [1] of 32 µM and a TGI [2] of 40.1 µM. It also gave a TGI [3] of 38.6 µM, a TGI [4] greater than 87.9 µM and a TGI [5] of 40.8 µM. For the same molecule, the TGI [6] was 46.5 µM, the TGI [7] was 36.9 µM and the TGI [9] was 28.5 µM.
Work on `COc1cc([C@H]2c3cc4c(cc3[C@H](NCc3ccc([N+](=O)[O-])cc3)C3COC(=O)[C@H]32)OCO4)cc(OC)c1O` (some centres undefined) yielded a TGI [10] of 3.98 µM, a TGI [1] of 3.26 µM and a TGI [3] of 34.9 µM. For the same molecule, the TGI [4] was greater than 100 µM, the TGI [5] was greater than 38.3 µM and the TGI [6] was greater than 100 µM. It also gave a TGI [7] greater than 64.6 µM and a TGI [9] of 6.44 µM.
`Cn1c(/C=C(\C#N)c2cccc(C(F)(F)F)c2)nc2c(N3CCOCC3)nc(Cl)nc21` gave a GI50 [10] of 1.67 µM, a TGI [10] of 3.2 µM and a GI50 [1] of 1.32 µM. For the same molecule, the TGI [1] was 2.73 µM, the GI50 [3] was 1.47 µM and the TGI [3] was 2.96 µM. The GI50 [4] was 0.23 µM, the TGI [4] was 0.75 µM and the GI50 [5] was 0.377 µM. It also gave a TGI [5] of 1.4 µM, a GI50 [6] of 1.48 µM and a TGI [6] of 2.86 µM. It also gave a GI50 [7] of 0.613 µM, a TGI [7] of 1.93 µM and a GI50 [8] of 1.72 µM. For the same molecule, the TGI [8] was 6.72 µM, the GI50 [9] was 0.221 µM and the TGI [9] was 0.61 µM.
`O=C(NC12CC3CC(CC(C3)C1)C2)C(=O)c1c[nH]c2ccc([N+](=O)[O-])cc12` gave a TGI [10] greater than 100 µM, a TGI [1] greater than 46.8 µM and a TGI [3] greater than 100 µM. The TGI [4] was greater than 100 µM, the TGI [5] was greater than 100 µM and the TGI [6] was greater than 100 µM. It also gave a TGI [7] greater than 94.6 µM and a TGI [9] greater than 100 µM.
`CCCCN=C(NC#N)N(Cc1ccccc1)Cc1ccccc1` showed a TGI [10] of 62.1 µM, a TGI [1] of 81.3 µM and a TGI [3] of 36.8 µM. The TGI [4] was 49.2 µM, the TGI [5] was 30.4 µM and the TGI [6] was 81.2 µM. For the same molecule, the TGI [7] was 65.5 µM and the TGI [9] was 29.8 µM.
`Nc1nc(NC2C=C(CO)C(O)C2O)c([N+](=O)[O-])c(=O)[nH]1` (centres undefined) showed a TGI [10] greater than 100 µM, a TGI [1] greater than 100 µM and a TGI [3] greater than 100 µM. For the same molecule, the TGI [4] was greater than 100 µM, the TGI [5] was greater than 100 µM and the TGI [6] was greater than 100 µM. The TGI [7] was greater than 100 µM and the TGI [9] was greater than 100 µM.
For `COc1ccc(SC2c3ccc(C)cc3Oc3nc(N)c(C#N)c(N)c32)cc1` (centres undefined), the GI50 [10] was 1.73 µM, the TGI [10] was 3.19 µM and the GI50 [1] was 1.81 µM. It also gave a TGI [1] of 3.22 µM, a GI50 [2] of 1.95 µM and a TGI [2] of 4.72 µM. It also gave a GI50 [3] of 1.72 µM, a TGI [3] of 3.59 µM and a GI50 [4] of 2.85 µM. The TGI [4] was 7.67 µM, the GI50 [5] was 1.95 µM and the TGI [5] was 4.08 µM. For the same molecule, the GI50 [6] was 1.75 µM, the TGI [6] was 3.2 µM and the GI50 [7] was 1.65 µM. It also gave a TGI [7] of 3.01 µM, a GI50 [9] of 1.72 µM and a TGI [9] of 3.3 µM.
For `O=c1cc(-c2ccccc2)[nH]c2c(Cl)cccc12`, the TGI [10] was greater than 100 µM, the TGI [1] was greater than 100 µM and the TGI [3] was greater than 100 µM. It also gave a TGI [4] greater than 100 µM, a TGI [5] greater than 100 µM and a TGI [6] greater than 100 µM. For the same molecule, the TGI [7] was 67.1 µM and the TGI [9] was greater than 100 µM.
Work on `CCC(=O)C(C)C(=O)C(=O)C(=O)OC` (centres undefined) yielded a TGI [10] greater than 100 µM, a TGI [1] greater than 68.2 µM and a TGI [3] greater than 100 µM. The TGI [4] was greater than 69.1 µM, the TGI [5] was greater than 45.7 µM and the TGI [6] was greater than 100 µM. For the same molecule, the TGI [7] was 99.3 µM and the TGI [9] was greater than 100 µM.
For `CC(C)(O)[C@@H]1CC[C@@]2(C)CCC[C@H](O)[C@H]2C1`, the TGI [10] was greater than 100 µM, the TGI [1] was greater than 100 µM and the TGI [3] was greater than 100 µM. The TGI [4] was greater than 100 µM, the TGI [5] was greater than 100 µM and the TGI [6] was greater than 100 µM. The TGI [9] was greater than 100 µM.
Molecule `COc1ccc(OC)c(NCC#N)c1` has a TGI [10] greater than 100 µM, a TGI [1] greater than 100 µM and a TGI [3] greater than 100 µM. It also gave a TGI [4] greater than 100 µM, a TGI [5] greater than 100 µM and a TGI [6] greater than 100 µM. The TGI [7] was greater than 100 µM and the TGI [9] was greater than 100 µM.
`CSc1nc(SC)c2c(C(N)=S)[nH]nc2n1` was tested, and the TGI [1] was 46.1 µM, the TGI [3] was 50.5 µM and the TGI [4] was 69.5 µM. For the same molecule, the TGI [5] was greater than 100 µM, the TGI [6] was 99.5 µM and the TGI [7] was 61 µM. The TGI [9] was greater than 100 µM.
